The experiment has as its target T1, ERR1 (also known as ERR-α or ERR-1) (Homo sapiens, UniProt P11474).
T1 sequence (P11474 193-421 limits assumed): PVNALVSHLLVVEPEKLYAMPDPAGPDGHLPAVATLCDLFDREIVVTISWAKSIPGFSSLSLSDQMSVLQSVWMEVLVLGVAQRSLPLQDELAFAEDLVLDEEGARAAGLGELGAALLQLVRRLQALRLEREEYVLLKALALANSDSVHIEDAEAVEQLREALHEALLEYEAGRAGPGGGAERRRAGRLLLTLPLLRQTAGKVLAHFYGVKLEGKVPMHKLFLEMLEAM
Kind of experiment: TR-FRET assay (disruption of co-activator peptide binding). Format: biochemical. Particulars: 6His-tagged ERR1 LBD, GST-hSRC2 co-activator polypeptide; average of 3 independent experiments. Summed up:
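Compound-induced loss of co-activator recruitment, read by time-resolved FRET (excitation 340 nm; 615 and 665 nm emission) after 4-18 h at 25 °C. Reagents: 6 nM ERR1LBD, 6 nM GST-SRC-2, 30 nM Eu cryptate, 7.5 nM XL665, pH 8 Tris buffer. Values: hyperbolic fits averaged over 3 independent runs.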

In the case of `CC(C)(C)N1CCN(C2=NC(=O)/C(=C/c3ccc4c(cnn4Cc4ccc(Cl)cc4C(F)(F)F)c3)S2)CC1` [Example 84, 2-(4-tert-Butyl-piperazin-1-yl)-5-[1-(4-chloro-2-trifluoromethyl-benzyl)-1H-indazol-5-ylmethylene]-thiazol-4-one], the EC50 (commonly the midpoint of the concentration-response curve) was determined as 39 nM.

On to `COCCN1C[C@@H]2C[C@H]1CN2C1=NC(=O)/C(=C/c2ccc3c(cnn3Cc3ccc(Cl)cc3C(F)(F)F)c2)S1` [Example 85, 5-[1-(4-Chloro-2-trifluoromethyl-benzyl)-1H-indazol-5-ylmethylene]-2-[5-(2-methoxy-ethyl)-2S,5S-diaza-bicyclo[2.2.1]hept-2-yl]-thiazol-4-one], for which the EC50 worked out at 8.6 nM.

With `CN1C[C@H]2CC[C@@H](C1)N2C1=NC(=O)/C(=C/c2ccc3c(cnn3Cc3ccc(C(F)(F)F)cc3C(F)(F)F)c2)S1` [Example 86, 5-[1-(2,4-Bis-trifluoromethyl-benzyl)-1H-indazol-5-ylmethylene]-2-(3-methyl-3,8-diaza-bicyclo[3.2.1]oct-8-yl)-thiazol-4-one], a half-maximal effect (EC50) was put at 20 nM.

Compound `CN1C[C@H]2CC[C@@H](C1)N2C1=NC(=O)/C(=C/c2ccc3c(cnn3Cc3ccc(Cl)cc3C(F)(F)F)c2)S1` [Example 87, 5-[1-(4-Chloro-2-trifluoromethyl-benzyl)-1H-indazol-5-ylmethylene]-2-(3-methyl-3,8-diaza-bicyclo[3.2.1]oct-8-yl)-thiazol-4-one] gave a 50% effective concentration (EC50) of 15 nM.

`COCC(=O)N1[C@H](C)CN(C2=NC(=O)/C(=C/c3ccc4c(cnn4Cc4ccc(Cl)cc4C(F)(F)F)c3)S2)C[C@@H]1C` [Example 88, 5-[1-(4-Chloro-2-trifluoromethyl-benzyl)-1H-indazol-5-ylmethylene]-2-[4-(2-methoxy-acetyl)cis-3,5-dimethyl-piperazin-1-yl]-thiazol-4-one] had an EC50 of 13 nM.

The compound `COCC(=O)N1C[C@@H]2C[C@H]1CN2C1=NC(=O)/C(=C/c2ccc3c(cnn3Cc3ccc(Cl)cc3C(F)(F)F)c2)S1` [Example 89, 5-[1-(4-Chloro-2-trifluoromethyl-benzyl)-1H-indazol-5-ylmethylene]-2-[5-(2-methoxy-acetyl)-2S,5S-diaza-bicyclo[2.2.1]hept-2-yl]-thiazol-4-one] gave an EC50 of 4.7 nM.

`COCC(=O)N1CCN(C2=NC(=O)/C(=C/c3ccc4c(cnn4Cc4ccc(Cl)cc4C(F)(F)F)c3)S2)[C@H](C)C1` [Example 90, 5-[1-(4-Chloro-2-trifluoromethyl-benzyl)-1H-indazol-5-ylmethylene]-2-[4-(2-methoxy-acetyl)-2-(R)-methyl-piperazin-1-yl]-thiazol-4-one] displayed an EC50 of 3.4 nM.

`COCC(=O)N1CCN(C2=NC(=O)/C(=C/c3ccc4c(cnn4Cc4ccc(Cl)cc4C(F)(F)F)c3)S2)CC1` [Example 91, 5-[1-(4-Chloro-2-trifluoromethyl-benzyl)-1H-indazol-5-ylmethylene]-2-[4-(2-methoxy-acetyl)-piperazin-1-yl]-thiazol-4-one]: the EC50 was 8.7 nM.

Regarding `NC1CN(C2=NC(=O)/C(=C/c3ccc4c(cnn4Cc4ccc(Cl)cc4C4CC4)c3)S2)C1` [Example 92, 2-(3-Amino-azetidin-1-yl)-5-[1-(4-chloro-2-cyclopropyl-benzyl)-1H-indazol-5-ylmethylene]-thiazol-4-one], the EC50 is 49 nM.

Regarding `CN1CCN(C2=NC(=O)/C(=C/c3ccc4c(cnn4Cc4ccc(Cl)cc4C4CC4)c3)S2)CC1` [Example 93, 5-[1-(4-Chloro-2-cyclopropyl-benzyl)-1H-indazol-5-ylmethylene]-2-(4-methyl-piperazin-1-yl)-thiazol-4-one], the EC50 is 14.4 nM.

On to `O=C1N=C(N2CC(C(=O)O)C2)S/C1=C\c1ccc2c(cnn2Cc2ccc(Cl)cc2C2CC2)c1` [Example 94, 1-(5-[1-(4-Chloro-2-cyclopropyl-benzyl)-1H-indazol-5-ylmethylene]-4-oxo-dihydro-thiazol-2-yl)-azetidine-3-carboxylic acid], for which the EC50 amounted to 26 nM.

In the case of `CN1CCN(C2=NC(=O)/C(=C/c3ccc4c(cnn4Cc4ccc(Cl)cc4Br)c3)S2)CC1` [Example 95, 5-[1-(2-bromo-4-chlorobenzyl)-1H-indazol-5-ylmethylene]-2-(4-methyl-piperazin-1-yl)-thiazol-4-one], the EC50 turned out to be 11 nM.

Take `CN1CCN(C2=NC(=O)/C(=C/c3ccc4c(cnn4Cc4ccc(Cl)cc4I)c3)S2)CC1` [Example 96, 5-[1-(4-Chloro-2-iodo-benzyl)-1H-indazol-5-ylmethylene]-2-(4-methyl-piperazin-1-yl)-thiazol-4-one]: the half-maximal effective concentration (EC50) came out at 64 nM.

Consider `CC(=O)c1cc(Cl)ccc1Cn1ncc2cc(/C=C3\SC(N4CCN(C)CC4)=NC3=O)ccc21` [Example 97, 5-[1-(2-Acetyl-4-chloro-benzyl)-1H-indazol-5-ylmethylene]-2-(4-methyl-piperazin-1-yl)-thiazol-4-one], for which the EC50 is 29 nM. This EC50 is about 2.2-fold lower than that of the compound before.

For `O=C1N=C(N2C[C@@H](O)[C@H](O)C2)S/C1=C\c1ccc2c(cnn2Cc2ccc(Cl)cc2C(F)(F)F)c1` [Example 99, 5-[1-(4-Chloro-2-trifluoromethyl-benzyl)-1H-indazol-5-ylmethylene]-2-(3R,4R-dihydroxy-pyrrolidin-1-yl)-thiazol-4-one], the concentration giving a half-maximal response (EC50) was 2.8 nM.

Turning to `O=C1N=C(N2CC3CC2CN3)S/C1=C\c1ccc2c(cnn2Cc2ccc(Cl)cc2C(F)(F)F)c1` [Example 100, 5-[1-(4-Chloro-2-trifluoromethyl-benzyl)-1H-indazol-5-ylmethylene]-2-(2S,5S-diaza-bicyclo[2.2.1]hept-2-yl)-thiazol-4-one], the EC50 came out at 14 nM.

The compound `CN1C2CCC1CN(C1=NC(=O)/C(=C/c3ccc4c(cnn4Cc4ccc(Cl)cc4C(F)(F)F)c3)S1)C2` [Example 101, 5-[1-(4-Chloro-2-trifluoromethyl-benzyl)-1H-indazol-5-ylmethylene]-2-(8-methyl-3,8-diaza-bicyclo[3.2.1]oct-3-yl)-thiazol-4-one] yielded a half-maximal effective concentration (EC50) of 21.4 nM.

For the compound `O=C1CN(C2=NC(=O)/C(=C/c3ccc4c(cnn4Cc4ccc(Cl)cc4C(F)(F)F)c3)S2)C1` [Example 102, 5-[1-(4-Chloro-2-trifluoromethyl-benzyl)-1H-indazol-5-ylmethylene]-2-(3-oxo-azetidin-1-yl)-thiazol-4-one], the EC50 is 22 nM.

On to `CN1C2CCC1CN(C1=NC(=O)/C(=C/c3ccc4c(cnn4Cc4ccc(C(F)(F)F)cc4C(F)(F)F)c3)S1)C2` [Example 103, 5-[1-(2,4-Bis-trifluoromethyl-benzyl)-1H-indazol-5-ylmethylene]-2-(8-methyl-3,8-diaza-bicyclo[3.2.1]oct-3-yl)-thiazol-4-one], for which a half-maximal effect (EC50) was put at 12.2 nM.

Take `O=C1N=C(N2CCNC[C@@H]2CO)S/C1=C\c1ccc2c(cnn2Cc2ccc(C(F)(F)F)cc2C(F)(F)F)c1` [Example 104, 5-[1-(2,4-Bis-trifluoromethyl-benzyl)-1H-indazol-5-ylmethylene]-2-(2-hydroxymethyl-piperazin-1-yl)-thiazol-4-one]: a half-maximal response (EC50) required 18.2 nM.

Compound `O=C1N=C(N2CCNC[C@@H]2CO)S/C1=C\c1ccc2c(cnn2Cc2ccc(Cl)cc2C(F)(F)F)c1` [Example 105, 5-[1-(4-Chloro-2-trifluoromethyl-benzyl)-1H-indazol-5-ylmethylene]-2-(2-hydroxymethyl-piperazin-1-yl)-thiazol-4-one] showed a concentration giving a half-maximal response (EC50) of 40.9 nM.

Consider `NC(=O)C1CCN(C2=NC(=O)/C(=C/c3ccc4c(cnn4Cc4ccc(C(F)(F)F)cc4C(F)(F)F)c3)S2)CC1` [Example 106, 1-{5-[1-(2,4-Bis-trifluoromethyl-benzyl)-1H-indazol-5-ylmethylene]-4-oxo-4,5-dihydro-thiazol-2-yl}-piperidine-4-carboxylic acid amide], for which the EC50 turned out to be 21 nM.

As to `CC(=O)NC1CCN(C2=NC(=O)/C(=C/c3ccc4c(cnn4Cc4ccc(C(F)(F)F)cc4C(F)(F)F)c3)S2)CC1` [Example 108, N-(1-{5-[1-(2,4-Bis-trifluoromethyl-benzyl)-1H-indazol-5-ylmethylene]-4-oxo-4,5-dihydro-thiazol-2-yl}-piperidin-4-yl)-acetamide], the EC50 turned out to be 30.2 nM.

As for `O=C1N=C(N2CCC(c3nnn[nH]3)CC2)S/C1=C\c1ccc2c(cnn2Cc2ccc(C(F)(F)F)cc2C(F)(F)F)c1` [Example 109, 5-[1-(2,4-Bis-trifluoromethyl-benzyl)-1H-indazol-5-ylmethylene]-2-[4-(1H-tetrazol-5-yl)piperidin-1-yl]-thiazol-4-one], the EC50 came out at 36 nM.

On to `O=C1N=C(N2CCC(c3nnn[nH]3)CC2)S/C1=C\c1ccc2c(cnn2Cc2ccc(Cl)cc2C(F)(F)F)c1` [Example 110, 5-[1-(4-Chloro-2-trifluoromethyl-benzyl)-1H-indazol-5-ylmethylene]-2-[4-(1H-tetrazol-5-yl)-piperidin-1-yl]-thiazol-4-one], for which a half-maximal response (EC50) required 18.6 nM. Compared with the last compound, the EC50 is about 1.9-fold lower.

`CS(=O)(=O)NC1CCN(C2=NC(=O)/C(=C/c3ccc4c(cnn4Cc4ccc(Cl)cc4C(F)(F)F)c3)S2)CC1` [Example 111, N-(1-{5-[1-(4-Chloro-2-trifluoromethyl-benzyl)-1H-indazol-5-ylmethylene]-4-oxo-4,5-dihydro-thiazol-2-yl}-piperidin-4-yl)-methanesulfonamide] had an EC50 of 6.9 nM.

`COC1CCN(C2=NC(=O)/C(=C/c3ccc4c(cnn4Cc4ccc(Cl)cc4C(F)(F)F)c3)S2)CC1` [Example 112, 5-[1-(4-Chloro-2-trifluoromethyl-benzyl)-1H-indazol-5-ylmethylene]-2-(4-methoxy-piperidin-1-yl)-thiazol-4-one] had an EC50 of 29 nM.

The record behind these values is patent US8399681B2, “Substituted aminothiazolone indazoles as estrogen related receptor-alpha modulators” (Janssen Pharmaceutica NV, priority 2009, dated 2013).
